Patent US6762200B2, “Oxa(thia)zolidine derivative and anti-inflammatory drug” (Nippon Soda Co. Ltd., priority 2000, dated 2004)
Like-named read-outs stand apart in the source and are kept apart here.

Experiments:
IV-cPLA(2) = molecular target: T1, IV-cPLA(2) (Homo sapiens, UniProt P47712); test: PLA(2) activity, hydrolysis of bis-BODIPY FL C11-PC in activated U937 cells; type: cell-based
T1 sequence (P47712 1-749): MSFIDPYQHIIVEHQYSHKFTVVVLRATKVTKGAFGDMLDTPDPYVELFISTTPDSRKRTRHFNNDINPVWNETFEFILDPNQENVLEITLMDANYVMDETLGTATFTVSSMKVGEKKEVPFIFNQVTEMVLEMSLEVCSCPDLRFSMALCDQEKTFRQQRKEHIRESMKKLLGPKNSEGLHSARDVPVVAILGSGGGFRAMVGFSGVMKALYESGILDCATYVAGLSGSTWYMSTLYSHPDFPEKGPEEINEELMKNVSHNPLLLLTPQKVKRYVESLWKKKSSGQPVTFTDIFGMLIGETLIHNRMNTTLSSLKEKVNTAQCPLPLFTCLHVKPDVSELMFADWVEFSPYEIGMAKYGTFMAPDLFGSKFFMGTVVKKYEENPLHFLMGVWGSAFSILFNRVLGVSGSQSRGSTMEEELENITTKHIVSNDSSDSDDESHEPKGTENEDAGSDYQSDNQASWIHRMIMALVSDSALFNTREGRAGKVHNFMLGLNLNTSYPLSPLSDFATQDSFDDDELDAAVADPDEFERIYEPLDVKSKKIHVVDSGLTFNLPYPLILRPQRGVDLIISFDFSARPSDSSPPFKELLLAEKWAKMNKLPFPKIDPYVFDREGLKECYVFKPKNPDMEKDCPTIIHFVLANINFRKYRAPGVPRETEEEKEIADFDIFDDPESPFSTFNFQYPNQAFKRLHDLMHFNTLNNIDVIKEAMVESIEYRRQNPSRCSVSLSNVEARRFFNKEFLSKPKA
Description: The PLA(2) activity was measured by quantitatively analyzing the fluorescent product of hydrolysis from 1,2-bis-(4,4-difluoro-5,7-dimethyl-4-bora-3a,4a-diaza-s-indecene-3-undecanoyl)-sn-glycero-3-phosphocholine (hereinafter referred to bis-BODIPY®FL C11—PC, Molecular Probes, Inc., B-7701) using activated U937 cells (human monoblastic lymphoma cell line) by inflammatory stimulus (Meshulam, T. et al., The journal of Biological Chemistry 267 (30): 21465-21470 (1992); and Solito, E. et al., British Journal of Pharmacology 124: 1675-1683 (1998).). The substrate bis-BODIPY®FL C11—PC is incorporated into cellular membranes, the proximity of the BODIPY FL fluorophores on adjacent phospholipid acyl chains causes fluorescence self-quenching. Separation of the fluorophores upon hydrolytic cleavage of one of the acyl chains by PLA(1) or the PLA(2) results in increased fluorescence. In the activated U937 by inflammatory stimulus, it is shown that this substrate should be cleaved enzymatically by IV-cPLA(2) from the feature of its behaviors including sensitivity profiles against the inhibitors.
The human cell line U937 was purchased from Dai-Nippon Pharmaceuticals Co., Ltd. The cells were maintained by transferring every 3-4 days into RPMI 1640 medium (Sigma Chemical Co., R6504) supplemented with heat-inactivated 10% fetal bovine serum (Fetal Bovine Serum, Sigma Chemical Co., F 4135) in a 5% CO2 humidified atmosphere at 37° C. The cells were transferred into the culture medium described above, containing 1.2% (v/v) dimethylsulfoxide (hereinafter referred to as […], Nacalai tesque Co., Ltd., D 134-45), and pre-cultured for 96 to 120 hours so as to differentiate into the macrophage-like cells to be provided for the assay. The macrophage-like cells were collected and washed by centrifugation with the Assay medium (Dulbecco's phosphate buffered saline (hereinafter referred to as PBS)-2.2 mM glucose-2.5 μm albumin). Then, Phorbol 12-Myristate 13-Acetate (hereinafter referred to as TPA, Sigma Chemical Co., P 8139) was added to the Assay medium to be 1×10^−8M as the final concentration. Then, the macrophage-like cells were further cultured for an hour to be activated (Rzigalinski, B. A. & Rosenthal, M. D., Biochimica et Biophysica Acta 1223: 219-225 (1994); and Gonchar, M. V. et al., Biochemical and Biophysical Research Communication, 249: 829-832 (1998).).
For preparing substrate liposome suspension, bis-BODIPY®FL C11—PC was combined with phosphatidylcholine (Sigma Chemical Co., P 7769) at 1:9 molar ratio in chloroform, and dried under nitrogen flow. The dried mixture was suspended with the Assay medium at 100 μg/mL, voltexed and sonicated for an hour on ice under dark condition.
The test compound was dissolved with DMSO at 30 mM, and the solution diluted with either DMSO or the Assay medium before addition into the reaction mixture. The DMSO concentration in the reaction mixture was controlled so as to be no more than 0.1%. The 30-fold concentration of test compound solution was put into each well of MICRPTEST™ Tissue Culture Plate, 96 Well (Falcon, 3072) at a rate of 2.5 μL/well. To the respective well was added 25 μL/well of the activated U937 cell suspension ([…]), and the cells were pre-cultured for 120 min. at 37° C. in a 5% CO2 atmosphere incubator. 47.5 μL/well of the substrate liposome suspension with 1.5×10^−6M A23187 (Sigma Chemical Co., C 7522) was added into each well to prepare 75 μL/well of the total reaction mixture, followed by culture for 30 min. under the same conditions with shielding against light. 100 μL/well of 0.1% GEDTA (Dojindo Laboratories Co. Ltd., 348-01311) methanol solution was added into each well and mixed to stop the reaction. […]

TPA-induced ear edema = type: in vivo, ICR-strain male mouse; details: topical, 6 hours after TPA
Description: This test was carried out referring to the method of Carlson, R. P. et al. (Agents and Actions, 17(2): 197-204 (1985).) and the method of Chang, J. (European Journal of Pharmacology, 142: 197-205 (1987).). […] 6 hours later, the thickness of each ear at the particular part was respectively measured three times using a digimatic micrometer to calculate the mean value. Ear edema was determined by subtracting the mean thickness of the left ear as without treatment from that of the right ear as TPA-applied. […] As the positive control, 100 mg/kg of Hydrocortisone (Sigma Chemical Co., H 4001) suspension was applied to the mouse similarly as for the compound of the present invention.

Compound	Inhibition (%) (IV-cPLA(2); 0.1 μM)	also measured
Cc1ccc(C2OC(=O)N(C(=S)NC3CCCCC3)C2C)cc1C (centres unmarked) [Compound 2-182]	91	
CC1C(c2ccc(Cl)cc2)SC(=O)N1C(=O)NN(C)C (centres unmarked) [Compound 2-22]	100	
O=C(NC1CCCCO1)N1CC(c2ccc(-c3ccccc3)cc2)OC1=O (centres unmarked) [Compound 2-78]		Inhibition (%) (IV-cPLA(2); 0.01 μM): 100%
CC1NC(=N[N+](=O)[O-])SC1c1ccc(Cl)cc1 (centres unmarked) [Compound 1-11]	88	
CC1C(c2ccc(-c3ccccc3)cc2)OC(=O)N1C(=O)Nc1ccc(Cl)cc1 (centres unmarked) [Compound 2-186]	75	
CC(=O)OCC(=O)[C@@]1(O)[C@H](C)C[C@H]2[C@@H]3CCC4=CC(=O)C=C[C@]4(C)[C@@]3(F)[C@@H](O)C[C@@]21C [DEX-Ac, Dexamathasone-21-acetate, reference compound]		Ear Edema Inhibition (%) (TPA-induced ear edema; 0.3 mg/20 μL/ear × 2): 49%; Ear Edema Inhibition (%) (TPA-induced ear edema; 1 mg/20 μL/ear × 2): 80%
CCNC(=O)N1C(=NNc2ccccc2)SC(c2ccc(Cl)cc2)C1C (centres unmarked) [Compound 1-77]		Inhibition (%) (IV-cPLA(2); 1 μM): 100%
C[C@@H]1[C@@H](c2ccc(Cl)cc2)SC(=O)N1C(=O)NC1CCCCO1 (single isomer, unassigned) [Compound 2-246]		Inhibition (%) (IV-cPLA(2); 0.01 μM): 78%; Ear Edema Inhibition (%) (TPA-induced ear edema; 1 mg/40 μL/ear × 2): 74%
CC1C(c2ccc(-c3ccccc3)cc2)OC(=O)N1C(=O)Nc1ccc(Cl)cc1 (centres unmarked) [Compound 2-187]	74	
CC1C(c2cnc3ccccc3c2)OC(=O)N1C(=O)NC1CCCCO1 (centres unmarked) [Compound 2-151]		Inhibition (%) (IV-cPLA(2); 0.01 μM): 64%
CC1C(c2ccc(Cl)cc2)SC(=O)N1C(=O)Nc1ccncc1 (centres unmarked) [Compound 2-21]		Inhibition (%) (IV-cPLA(2); 1 μM): 100%
CC1C(c2ccccc2)OC(=O)N1C(=O)NC1CCCCO1 (centres unmarked) [Compound 2-155]	95	
COC1CCCC(NC(=O)N2C(=O)OC(c3ccc4ccccc4c3)C2C)O1 (centres unmarked) [Compound 2-133]		Inhibition (%) (IV-cPLA(2); 1 μM): 75%
CC1C(c2cccnc2)SC(=O)N1C(=O)NC1CCCCC1 (centres unmarked) [Compound 2-145]	72	
CC1C(c2ccc3ccccc3c2)OC(=O)N1C(=O)NC1CCCCO1 (centres unmarked) [Compound 2-115]	63	
C=CC(=O)N=C1SC(c2ccc(C)cc2)C(C)N1C(=O)NC1CCCCC1 (centres unmarked) [Compound 1-49]	91	

Compound	Inhibition (%) (IV-cPLA(2); 0.1 μM)	also measured
CC1C(c2ccc3c(c2)CCC3)OC(=O)N1C(=O)NC1CCCCO1 (centres unmarked) [Compound 2-127]		Inhibition (%) (IV-cPLA(2); 0.01 μM): 54%; Ear Edema Inhibition (%) (TPA-induced ear edema; 1 mg/40 μL/ear × 2): 81%
CC1C(c2ccc(Cl)cc2)SC(=O)N1C(=O)NC(=O)c1ccccc1 (centres unmarked) [Compound 2-38]		Inhibition (%) (IV-cPLA(2); 1 μM): 87%
Cc1ccc(C2SC(=NC(=S)NC3CCCCC3)NC2C)cc1 (centres unmarked) [Compound 1-112]		Inhibition (%) (IV-cPLA(2); 1 μM): 72%; Ear Edema Inhibition (%) (TPA-induced ear edema; 1 mg/40 μL/ear × 2): 69%
CC1C(c2ccc(Oc3ccccc3)cc2)OC(=O)N1C(=O)NC1CCCO1 (centres unmarked) [Compound 2-128]		Inhibition (%) (IV-cPLA(2); 1 μM): 81%; Ear Edema Inhibition (%) (TPA-induced ear edema; 1 mg/40 μL/ear × 2): 49%
Cc1ccc(C2OC(=O)N(C(=O)NN3CCN(C)CC3)C2C)cc1 (centres unmarked) [Compound 2-161]		Inhibition (%) (IV-cPLA(2); 1 μM): 65%
CC1C(c2ccc(Cc3ccccc3)cc2)OC(=O)N1C(=O)NC1CCCCO1 (centres unmarked) [Compound 2-117]	82	
CC(=O)N=C1SC(c2ccccc2)C(C)N1CC(OC(C)=O)c1ccccc1 (centres unmarked) [Compound 1-42]	94	
CC1C(c2ccc(-c3ccccc3)cc2)OC(=O)N1C(=S)NC1CCCCC1 (centres unmarked) [Compound 2-75]	83	
CC1C(c2ccc(Cl)cc2)SC(=O)N1C(=O)NC1CCCCO1 (centres unmarked) [Compound 2-201]		Inhibition (%) (IV-cPLA(2); 1 μM): 94%
CC1C(c2ccc(Cl)cc2)SC(=O)N1C(=S)NCCN1CCOCC1 (centres unmarked) [Compound 2-37]	63	
CC1C(c2cccc3ccccc23)OC(=O)N1C(=O)NC1CCCCO1 (centres unmarked) [Compound 2-113]		Inhibition (%) (IV-cPLA(2); 1 μM): 72%
CC1C(c2ccccc2)OC(=O)N1C(=S)NC1CCCCC1 (centres unmarked) [Compound 2-180]	100	
Cc1ccc(N2C(=NC(=O)NC3CCCCC3)SC(c3ccc(Cl)cc3)C2C)cc1 (centres unmarked) [Compound 1-90]		Ear Edema Inhibition (%) (TPA-induced ear edema; 1 mg/20 μL/ear × 2): 41%
CC1C(c2ccc(Cl)cc2)SC(=NC#N)N1Cc1ccc(Cl)nc1 (centres unmarked) [Compound 1-5]	66	
O=C(NC1CCCCO1)N1CC(c2ccc3ccccc3c2)OC1=O (centres unmarked) [Compound 2-130]	68	

Further lines, with some results ahead:

Inhibition (%) (IV-cPLA(2); 0.1 μM)	Compound	also measured
54	CCONC(=O)N1C(=O)OC(c2ccc(Oc3ccccc3)cc2)C1C (centres unmarked) [Compound 2-116]	
72	CCN(C(C)C)S(=O)(=O)NC(=O)N1C(=O)OC(c2ccc3ccccc3c2)C1C (centres unmarked) [Compound 2-126]	
88	Cc1ccc(C2OC(=O)N(C(=O)NC3CCCCO3)C2C)cc1C (centres unmarked) [Compound 2-156]	Ear Edema Inhibition (%) (TPA-induced ear edema; 1 mg/20 μL/ear × 2): 48%
94	CCN(CC)S(=O)(=O)NC(=O)N1C(=O)OC(c2ccc(C)cc2)C1C (centres unmarked) [Compound 2-55]	Ear Edema Inhibition (%) (TPA-induced ear edema; 1 mg/40 μL/ear × 2): 54%
95	CCOC(=O)C(C)NC(=O)N1C(=O)OC(c2ccc(C)cc2)C1C (centres unmarked) [Compound 2-54]	Ear Edema Inhibition (%) (TPA-induced ear edema; 0.3 mg/20 μL/ear × 2): 64%
92	COS(=O)(=O)NC(=O)N1C(=O)OC(c2ccc(C)cc2)C1C (centres unmarked) [Compound 2-56]	
100	CN=C1OC(c2ccc(C)cc2)C(C)N1C(=O)Nc1ccc(Cl)cc1 (centres unmarked) [Compound 1-25]	
82	Cc1ccc(C2OC(=O)N(C(=O)NC3CCCCO3)C2C)cc1 (centres unmarked) [Compound 2-170]	Ear Edema Inhibition (%) (TPA-induced ear edema; 0.3 mg/20 μL/ear × 2): 57%
95	Cc1ccc(C2OC(=O)N(C(=O)NC3CCOCC3)C2C)cc1 (centres unmarked) [Compound 2-159]	
55	Cc1ccc(C2OC(=O)N(C(=O)NC(=O)c3c(F)cccc3F)C2C)cc1 (centres unmarked) [Compound 2-79]	
96	Cc1ccc(C2OC(=O)N(C(=O)NC3CCSCC3)C2C)cc1 (centres unmarked) [Compound 2-157]	
77	Cc1ccc(C2OC(=O)N(C(=O)NCCCl)C2C)cc1 (centres unmarked) [Compound 2-48]	
57	CCOC(=O)CN=C1NC(C)C(c2ccc(C)cc2)S1 (centres unmarked) [Compound 1-35]	
